The values below are quoted from earlier work in US10039772B2, “Methods and compositions for treating alcohol use disorders” (priority 2015, dated 2018).

The subject of the first series is 11β-HSD1, 11β-HSD2. The settings on record: 11β-HSD isozyme specificity per cited reference; cited from earlier work.
As for `CC(C)(C)N1CCN(c2ccc(N3CCN(C(=O)N[C@H]4C5CC6CC4C[C@@](C(N)=O)(C6)C5)c4ccccc43)nc2)CC1` [Number 101], the Specificity was 11β- HSD1 > 2.
Take `CN(C(=O)N1CCC(CN2C(=O)Nc3ccc(Cl)cc3S2(=O)=O)CC1)C1CCCCCC1` [Number 86]: the Specificity is listed as 11β- HSD1 > 2.
Consider `Cc1ccc(-c2cccc(C(=O)N3CCCC(C)(C)C3)n2)cc1F` [Number 71], for which the Specificity is reported as 11β- HSD1 > 2.
As to `CC(C)(CC(=O)NC1CC1)CC(=O)N[C@H]1C2CC3CC1C[C@@](O)(C3)C2` [Number 94], the Specificity is recorded as 11β- HSD1 > 2.
As for `CC(C)(C)c1ccc(S(=O)(=O)N2C[C@H]3C[C@@H]2CN3C2CCCC2)cc1` [Number 30], the Specificity is given as 11β- HSD1 > 2.
Turning to `CC(C)(C(=O)N1CCC(c2c[nH]c3ncccc23)C1)c1ccc(Cl)cc1` (stereo not drawn) [Number 98], the Specificity was 11β- HSD1 > 2.
Regarding `COC1(C)CCCN(S(=O)(=O)c2ccc(C(C)(C)C)cc2)CC1` (stereo not drawn) [Number 108], the Specificity is 11β- HSD1 > 2.
Take `COc1cccc(C(=O)CSc2nnc(C)s2)c1` [Number 123]: the Specificity is 11β- HSD1 > 2.
On to `O=C(CSc1nnnn1-c1cccc(Cl)c1)c1ccccc1` [Number 113], for which the Specificity was 11β- HSD1 > 2.
For the molecule `CC1CCN(C(=O)c2cccc(CSc3c(Cl)cccc3Cl)n2)CC1` [Number 68], the Specificity is recorded as 11β- HSD1 > 2.
In the case of `CC1(C)CCN([C@H]2C3CC4CC2C[C@@](O)(C4)C3)C(=O)c2cnn(-c3ccc(Cl)cc3)c21` [Number 110], the Specificity is reported as 11β- HSD1 > 2.
For `Cn1c(-c2ccccc2)nnc1C12CC3CC(CC(C3)C1)C2` [Number 23], the Specificity is 11β- HSD1 > 2.
As to `O=C(CS(=O)(=O)c1ccccc1)c1ccc(C(F)(F)F)cc1` [Number 40], the Specificity is given as 11β- HSD1 > 2.
Take `COc1ccc(N2C(=O)C(C)(C)C2c2ccccc2OC)cc1` (stereo not drawn) [Number 51]: the Specificity is reported as 11β- HSD1 > 2.
As to `CC(C)(C(=O)NC1C2CC3CC1CC(C(N)=O)(C3)C2)N1CCN(c2ccc(C(F)(F)F)cn2)CC1` (stereo not drawn) [Number 60], the Specificity is 11β- HSD1 > 2.
For `CCCSc1ncccc1C(=O)NC1CCCCC1` [Number 46], the Specificity is listed as 11β- HSD1 > 2.
In the case of `CC(C)(C)n1ncc2c1CCCN([C@H]1C3CC4CC1C[C@@](O)(C4)C3)C2=O` [Number 109], the Specificity is listed as 11β- HSD1 > 2.
Consider `C[C@H](NC1=NC(=O)[C@@](C)(C(C)(C)O)S1)c1ccc(F)cc1` [Number 10], for which the Specificity is reported as 11β- HSD1 > 2.
As to `COc1cc(C(=O)N2CCC(n3c(=O)[nH]c4ccccc43)CC2)ccc1C` [Number 8], the Specificity is 11β- HSD1 > 2.
As for `O=C1C(Cc2ccccc2)CCN1C1CCCCC1` (stereo not drawn) [Number 56], the Specificity was 11β- HSD1 > 2.
Take `CC1(C)[C@@H](O)CC[C@]2(C)[C@H]3C(=O)C=C4[C@@](C)(CC[C@@]5(C)CC[C@@]6(C)C[C@@]45OC6=O)[C@]3(C)CC[C@@H]12` [Number 248]: the Specificity is 11β- HSD1 > 2.
On to `O=C(CN1CCN(c2ccc(C(F)(F)F)cn2)CC1)NC1C2CC3CC1CC(O)(C3)C2` (stereo not drawn) [Number 59], for which the Specificity was 11β- HSD1 > 2.
For `Cn1c(N2CCN(S(=O)(=O)c3ccc(C(C)(C)C)cc3)CC2)nc2ccccc21` [Number 125], the Specificity is recorded as 11β- HSD1 > 2.
`CC1(C)C(=O)N(c2cccc(S(C)(=O)=O)c2)C1c1cccc2nccnc12` (stereo not drawn) [Number 53]: the Specificity is on record as 11β- HSD1 > 2.
Consider `CC(C)(C)c1c(C(=O)NC2C3CC4CC(C3)CC2C4)cnn1-c1ccc(C(=O)O)cc1` (stereo not drawn) [Number 52], for which the Specificity was 11β- HSD1 > 2.
On to `Cc1cc(N)nc(NS(=O)(=O)c2ccc(-c3ccc(C#N)cc3)cc2)c1` [Number 36], for which the Specificity is listed as 11β- HSD1 > 2.
In the case of `CCN(CC)C(=O)Cc1csc(NS(=O)(=O)c2cccc(Cl)c2C)n1` [Number 6], the Specificity is 11β- HSD1 > 2.
As for `Cc1ccc(-n2nnnc2SCC(=O)C(C)(C)C)c(C)c1` [Number 112], the Specificity is reported as 11β- HSD1 > 2.
Regarding `CCC1(CC)OC(N[C@@H](C)c2ccccc2C(F)(F)F)=NC1=O` [Number 9], the Specificity is recorded as 11β- HSD1 > 2.
In the case of `CS(=O)(=O)NCCC(=O)N1CCC(c2cc(C(=O)N3CCC[C@H]4CCCC[C@H]43)cs2)CC1` [Number 114], the Specificity was 11β- HSD1 > 2.
For `CCN(CC)C(=O)Cc1cccc(NS(=O)(=O)c2cccc(Cl)c2C)n1` [Number 34], the Specificity is listed as 11β- HSD1 > 2.
For the molecule `CCN(CC)C(=O)C1CCCN(S(=O)(=O)c2cccc(Cl)c2C)C1` (stereo not drawn) [Number 84], the Specificity is given as 11β- HSD1 > 2.
In the case of `O=C(N1CCC2(CCCCC2)C1)C1(c2ccccc2)CC1` [Number 96], the Specificity was 11β- HSD1 > 2.
In the case of `CN(C(=O)c1csc(CNS(=O)(=O)c2cccc(Cl)c2)n1)C1CCCCCC1` [Number 85], the Specificity is on record as 11β- HSD1 > 2.
On to `Cc1ccc(S(=O)(=O)N2CCN(c3nc4ccccc4n3C)CC2)cc1` [Number 126], for which the Specificity is 11β- HSD1 > 2.
For `COc1c(-c2nnc(-c3ccccc3C(F)(F)F)n2C)ccc2ccc(Cl)cc12` [Number 24], the Specificity is 11β- HSD1 > 2.
Turning to `Cc1c(Cl)cccc1S(=O)(=O)Nc1nc(CCN2CCOCC2=O)cs1` [Number 7, 3-chloro-2-methyl-N-{4-[2-(3-oxo-4-morpholinyl)ethyl]-1,3-thiazol-2-yl}benzenesulfonamide], the Specificity is recorded as 11β- HSD1 > 2.
On to `N#Cc1c(O)nc(SCc2ccccc2Cl)nc1-c1ccccc1` [Number 69], for which the Specificity is on record as 11β- HSD1 > 2.
With `COc1ccc(C(=O)N2CCCC(c3ccccc3)CC2)cc1` (stereo not drawn) [Number 107], the Specificity is 11β- HSD1 > 2.
Consider `Cn1cnnc1SCC(=O)C12CC3CC(CC(C3)C1)C2` [Number 124], for which the Specificity was 11β- HSD1 > 2.
As for `CCN1CCN(C(=O)C23CC4CC(C2)CC(c2ccc(C)cc2)(C4)C3)CC1` [Number 111], the Specificity is reported as 11β- HSD1 > 2.
Regarding `O=C(Nc1ccc2scnc2c1)c1cc(Cl)cc(Cl)c1` [Number 118], the Specificity is reported as 11β- HSD1 > 2.
`O=C(O)CC1(c2ccc(F)cc2)C2CCCC1CCC2` (stereo not drawn) [Number 74]: the Specificity is 11β- HSD1 > 2.
Regarding `COc1ccc2nc(NS(=O)(=O)c3ccccc3)sc2c1` [Number 115], the Specificity is listed as 11β- HSD1 > 2.
On to `CCCCCC12CCC(c3nnc(-c4ccccc4C(F)(F)F)n3C)(CC1)CC2` [Number 28], for which the Specificity is 11β- HSD1 > 2.
As for `O=C(OC1C2CC3CC(C2)CC1C3)N1CCCCC1` (stereo not drawn) [Number 78], the Specificity is recorded as 11β- HSD1 > 2.
With `CCCN(C(=O)c1ccc(CNS(=O)(=O)c2cccc(Cl)c2)cc1)C1CCCCCC1` [Number 83], the Specificity is given as 11β- HSD1 > 2.
Turning to `N#Cc1ccc(-c2ccc(S(=O)(=O)Nc3cccc(CO)n3)cc2)cc1` [Number 39], the Specificity is 11β- HSD1 > 2.
Take `C[C@@H]1CC(n2c(=O)[nH]c3ccccc32)C[C@@H](C)N1C(=O)c1cc(Cl)c(N)c(Cl)c1` (stereo partly drawn) [Number 55]: the Specificity was 11β- HSD1 > 2.
In the case of `N#Cc1cccnc1N[C@@H]1CCN(C(=O)O[C@H]2C3CC4CC2C[C@@](C(N)=O)(C4)C3)C1` [Number 79], the Specificity is 11β- HSD1 > 2.
`CC(C)(Oc1ccc(Cl)cc1)C(=O)Nc1nnn[nH]1` [Number 116]: the Specificity is recorded as 11β- HSD1 > 2.
Regarding `O=C(CN1C(C(=O)c2ccccc2)=C(O)c2ccccc2S1(=O)=O)c1ccccc1` [Number 91], the Specificity is 11β- HSD1 > 2.
Turning to `Cc1c(Cl)cccc1S(=O)(=O)N1CCC[C@@H](C(=O)N[C@H]2C[C@@H]3CC[C@@]2(C)C3(C)C)C1` [Number 87], the Specificity is given as 11β- HSD1 > 2.
On to `C[C@@H]1CN(c2ncc(F)cc2C(F)(F)F)CCN1S(=O)(=O)c1cccc(-n2cncn2)c1` [Number 42], for which the Specificity is recorded as 11β- HSD1 > 2.
With `O=S(=O)(c1ccc(Cl)c(Cl)c1)N1CCN(c2ncccc2C(F)(F)F)CC1` [Number 41], the Specificity is given as 11β- HSD1 > 2.
Turning to `Cn1c(-c2ccccc2C(F)(F)F)nnc1C12CCC(c3nc(-c4ccc(F)cc4)no3)(CC1)CC2` [Number 33], the Specificity is listed as 11β- HSD1 > 2.
Consider `O=C(O)CC1(CC(=O)NCc2ccc(F)cc2Cl)CCCC1` [Number 93], for which the Specificity is on record as 11β- HSD1 > 2.
In the case of `O=C1CC2(CCN(C(=O)C3(c4ccccc4)CC3)CC2)Oc2ccc(F)cc21` [Number 95], the Specificity is listed as 11β- HSD1 > 2.

The series is the same for the next values; noted with them: cited from earlier work.
Take `Cc1c(Cl)cccc1S(=O)(=O)N1CCCC[C@@H]1C(=O)N[C@H]1C2CC3CC1C[C@](O)(C3)C2` [Number 89]: the Specificity is 11β- HSD1 > 2.
Regarding `CO[C@@H]1C[C@H]2CC[C@@H](C1)N2S(=O)(=O)c1ccc(C(C)(C)C)cc1` [Number 32], the Specificity is recorded as 11β- HSD1 > 2.
`C[C@](O)(c1ccc(C(=O)N(C2CC2)C2CCC(CCC(N)=O)(c3ccccc3)CC2)cc1)C(F)(F)F` (stereo partly drawn) [Number 19]: the Specificity is on record as 11β- HSD1 > 2.
For `O=C(Nc1cccc(C(=O)N2CCC[C@H]3CCCC[C@@H]32)c1)c1ccccc1` [Number 104], the Specificity is recorded as 11β- HSD1 > 2.
Regarding `CC(C(=O)NC1C2CC3CC1CC(O)(C3)C2)N1CCN(c2ccc(C(F)(F)F)cn2)CC1` (stereo not drawn) [Number 66], the Specificity is 11β- HSD1 > 2.
For `C[C@](O)(c1ccc(C(=O)N(C2CC2)C2CCN(CC3(C(N)=O)CC3)CC2)cc1)C(F)(F)F` [Number 18], the Specificity is reported as 11β- HSD1 > 2.
As to `N#Cc1ncccc1CSc1nc(O)c(C#N)c2c1COCC2` [Number 70], the Specificity was 11β- HSD1 > 2.
As for `CCCSc1nc(N2CCC[C@@H](CC(=O)O)C2)ccc1C(=O)NC1CCCCC1` [Number 47], the Specificity is 11β- HSD1 > 2.
`CC(C)[C@]1(C)SC(N[C@H]2C[C@H]3C[C@@H]2C[C@@H]3O)=NC1=O` [Number 14]: the Specificity is recorded as 11β- HSD1 > 2.
On to `CC1(C)OC(N[C@@H](CCO)c2ccc(F)cc2)=NS(=O)(=O)C1(C)C` [Number 103], for which the Specificity was 11β- HSD1 > 2.
Regarding `C[C@@H](c1ccc(-c2ccc(F)cc2F)cc1)N1CC[C@](CCO)(c2ccc(F)cc2)OC1=O` [Number 81], the Specificity is listed as 11β- HSD1 > 2.
